Activity and inhibition data for two molecules are collected here from ChEMBL document CHEMBL5678818, “Discovery of potent SOS1 inhibitors that block RAS activation via disruption of the RAS-SOS1 interaction” (Proc Natl Acad Sci U S A, 2019).

For orientation: inhibition means the drop in the measured response relative to a control, in per cent.

The subject of assay [1] is Receptor-type tyrosine-protein kinase FLT3 (Homo sapiens), P36888 [UNDEFINED MUTATION]. Kind of assay: Inhibition of FLT3 ITD/D835V mutant (unknown origin) assessed as residual activity at 1000 nM by KINOMEscan analysis relative to control.
The species named for assay [2] is Homo sapiens. Description: Inhibition of N-terminal GST-tagged recombinant human SOS1 L901K mutant (564 to 1049 residues) expressed in Escherichia coli assessed as reduction in KRAS G12C mutant activation at 10 uM by HTRF analysis relative to control. A general note: In TR-FRET formats the signal depends on donor and acceptor labels being close together.
Assay [3] addresses Tyrosine-protein kinase BTK (Homo sapiens) (UniProt Q06187). Description: Inhibition of BTK (unknown origin) assessed as residual activity at 100 nM by KINOMEscan analysis relative to control.
Assay [4] addresses T1, Mitogen-activated protein kinase kinase kinase 7 (Homo sapiens) (UniProt O43318).
T1 sequence (whole entry): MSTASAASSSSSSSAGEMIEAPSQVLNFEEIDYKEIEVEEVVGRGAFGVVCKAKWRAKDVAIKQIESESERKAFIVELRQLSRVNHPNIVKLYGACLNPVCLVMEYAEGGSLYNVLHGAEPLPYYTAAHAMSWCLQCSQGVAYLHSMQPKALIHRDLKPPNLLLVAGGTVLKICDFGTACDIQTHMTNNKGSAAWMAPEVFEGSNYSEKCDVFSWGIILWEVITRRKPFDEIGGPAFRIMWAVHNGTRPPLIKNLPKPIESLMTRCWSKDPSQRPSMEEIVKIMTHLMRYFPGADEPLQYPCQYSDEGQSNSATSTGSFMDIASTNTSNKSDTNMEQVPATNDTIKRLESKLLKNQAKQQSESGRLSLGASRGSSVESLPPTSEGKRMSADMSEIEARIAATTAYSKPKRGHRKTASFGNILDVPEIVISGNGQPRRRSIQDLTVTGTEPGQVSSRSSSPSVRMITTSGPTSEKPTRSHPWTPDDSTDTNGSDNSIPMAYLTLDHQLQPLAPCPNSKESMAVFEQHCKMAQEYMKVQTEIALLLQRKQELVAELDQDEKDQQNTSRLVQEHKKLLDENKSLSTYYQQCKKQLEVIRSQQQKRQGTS
Kind of assay: Inhibition of TAK1 (unknown origin) assessed as residual activity at 100 nM by KINOMEscan analysis relative to control.

Assay [5] concerns the target Macrophage colony-stimulating factor 1 receptor (Homo sapiens) (UniProt P07333). Description: Inhibition of autoinhibited CSF1R (unknown origin) assessed as residual activity at 100 nM by KINOMEscan analysis relative to control.
The target of assay [6] is Tyrosine-protein kinase FRK (Homo sapiens) (UniProt P42685). Kind of assay: Inhibition of FRK (unknown origin) assessed as residual activity at 100 nM by KINOMEscan analysis relative to control.
The test system of assay [7] is Hepatocyte growth factor receptor (Homo sapiens), P08581 [Y1235D]. Kind of assay: Inhibition of MET Y1235D mutant (unknown origin) assessed as residual activity at 100 nM by KINOMEscan analysis relative to control.
For assay [8], the system named is Receptor-type tyrosine-protein kinase FLT3 (Homo sapiens), P36888 [D835Y]. Kind of assay: Inhibition of FLT3 D835Y mutant (unknown origin) assessed as residual activity at 100 nM by KINOMEscan analysis relative to control.
The species named for assay [9] is Homo sapiens. Kind of assay: Inhibition of N-terminal GST-tagged recombinant human SOS1 N879A mutant (564 to 1049 residues) expressed in Escherichia coli assessed as reduction in KRAS G12C mutant activation at 10 uM by HTRF analysis relative to control.
Assay [10] has as its target Death-associated protein kinase 3 (Homo sapiens) (UniProt O43293). Description: Inhibition of DAPK3 (unknown origin) assessed as residual activity at 100 nM by KINOMEscan analysis relative to control.
Assay [11] has as its target Serine/threonine-protein kinase pim-2 (Homo sapiens) (UniProt Q9P1W9). Description: Inhibition of PIM2 (unknown origin) assessed as residual activity at 100 nM by KINOMEscan analysis relative to control.
Assay [12] deals with T2, Tyrosine-protein kinase ZAP-70 (Homo sapiens) (UniProt P43403).
T2 sequence (whole entry): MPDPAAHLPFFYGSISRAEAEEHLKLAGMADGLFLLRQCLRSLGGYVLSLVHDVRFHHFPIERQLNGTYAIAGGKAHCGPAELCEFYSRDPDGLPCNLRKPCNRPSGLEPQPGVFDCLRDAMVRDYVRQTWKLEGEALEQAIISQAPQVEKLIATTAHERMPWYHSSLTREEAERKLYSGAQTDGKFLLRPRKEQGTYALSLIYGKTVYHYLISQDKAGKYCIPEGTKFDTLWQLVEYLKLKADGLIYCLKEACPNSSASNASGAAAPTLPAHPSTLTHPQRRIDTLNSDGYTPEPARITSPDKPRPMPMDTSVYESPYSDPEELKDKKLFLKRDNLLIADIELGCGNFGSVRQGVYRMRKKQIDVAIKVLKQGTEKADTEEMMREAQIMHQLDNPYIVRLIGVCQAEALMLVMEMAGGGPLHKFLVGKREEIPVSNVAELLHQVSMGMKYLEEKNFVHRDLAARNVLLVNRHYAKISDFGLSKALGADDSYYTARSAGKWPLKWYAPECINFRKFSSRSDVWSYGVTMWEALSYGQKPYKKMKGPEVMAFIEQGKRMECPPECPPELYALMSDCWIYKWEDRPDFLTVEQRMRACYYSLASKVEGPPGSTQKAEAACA
Kind of assay: Inhibition of ZAP70 (unknown origin) assessed as residual activity at 100 nM by KINOMEscan analysis relative to control.

The target of assay [13] is Fibroblast growth factor receptor 2 (Homo sapiens) (UniProt P21802). Description: Inhibition of FGFR2 (unknown origin) assessed as residual activity at 100 nM by KINOMEscan analysis relative to control.
Assay [14] addresses Serine/threonine-protein kinase Nek6 (Homo sapiens) (UniProt Q9HC98). Description: Inhibition of NEK6 (unknown origin) assessed as residual activity at 100 nM by KINOMEscan analysis relative to control.
The target in assay [15] is MAP/microtubule affinity-regulating kinase 3 (Homo sapiens) (UniProt P27448). Description: Inhibition of MARK3 (unknown origin) assessed as residual activity at 100 nM by KINOMEscan analysis relative to control.
The target in assay [16] is Tyrosine-protein kinase Tec (Homo sapiens) (UniProt P42680). Description: Inhibition of TEC (unknown origin) assessed as residual activity at 100 nM by KINOMEscan analysis relative to control.
The target in assay [17] is Serine/threonine-protein kinase PAK 4 (Homo sapiens) (UniProt O96013). Kind of assay: Inhibition of PAK4 (unknown origin) assessed as residual activity at 100 nM by KINOMEscan analysis relative to control.
Assay [18] addresses Calcium/calmodulin-dependent protein kinase type II subunit delta (Homo sapiens) (UniProt Q13557). Description: Inhibition of CAMK2D (unknown origin) assessed as residual activity at 100 nM by KINOMEscan analysis relative to control.

Serine/threonine-protein kinase pim-2 (Homo sapiens), sequence (Q9P1W9 whole entry, looked up): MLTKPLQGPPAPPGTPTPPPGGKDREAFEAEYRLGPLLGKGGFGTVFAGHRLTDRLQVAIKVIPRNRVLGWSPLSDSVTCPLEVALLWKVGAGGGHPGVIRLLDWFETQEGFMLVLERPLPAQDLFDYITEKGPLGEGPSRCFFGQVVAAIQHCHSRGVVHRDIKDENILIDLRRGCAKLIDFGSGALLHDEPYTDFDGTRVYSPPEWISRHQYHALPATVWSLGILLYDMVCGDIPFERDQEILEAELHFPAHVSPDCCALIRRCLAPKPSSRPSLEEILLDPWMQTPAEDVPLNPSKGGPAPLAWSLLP
Tyrosine-protein kinase BTK (Homo sapiens), sequence (Q06187 whole entry): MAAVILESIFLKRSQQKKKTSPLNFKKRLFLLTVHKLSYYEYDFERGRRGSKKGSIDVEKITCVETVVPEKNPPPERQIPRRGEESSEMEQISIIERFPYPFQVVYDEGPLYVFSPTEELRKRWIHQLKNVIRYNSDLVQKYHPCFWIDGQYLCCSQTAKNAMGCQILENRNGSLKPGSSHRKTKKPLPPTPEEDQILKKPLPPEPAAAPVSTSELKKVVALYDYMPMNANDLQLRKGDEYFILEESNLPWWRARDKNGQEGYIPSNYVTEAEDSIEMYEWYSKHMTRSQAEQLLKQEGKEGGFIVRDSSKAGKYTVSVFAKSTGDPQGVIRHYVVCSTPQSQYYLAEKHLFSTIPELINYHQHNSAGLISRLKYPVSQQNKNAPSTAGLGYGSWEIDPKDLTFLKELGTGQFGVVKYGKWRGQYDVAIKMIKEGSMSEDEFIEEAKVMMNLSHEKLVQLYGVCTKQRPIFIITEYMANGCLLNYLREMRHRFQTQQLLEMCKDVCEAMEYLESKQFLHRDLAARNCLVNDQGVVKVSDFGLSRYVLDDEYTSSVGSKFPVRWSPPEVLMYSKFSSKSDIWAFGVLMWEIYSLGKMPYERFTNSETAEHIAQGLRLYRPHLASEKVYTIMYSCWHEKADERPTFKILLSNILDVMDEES
Fibroblast growth factor receptor 2 (Homo sapiens), sequence (P21802 22-821 limits assumed): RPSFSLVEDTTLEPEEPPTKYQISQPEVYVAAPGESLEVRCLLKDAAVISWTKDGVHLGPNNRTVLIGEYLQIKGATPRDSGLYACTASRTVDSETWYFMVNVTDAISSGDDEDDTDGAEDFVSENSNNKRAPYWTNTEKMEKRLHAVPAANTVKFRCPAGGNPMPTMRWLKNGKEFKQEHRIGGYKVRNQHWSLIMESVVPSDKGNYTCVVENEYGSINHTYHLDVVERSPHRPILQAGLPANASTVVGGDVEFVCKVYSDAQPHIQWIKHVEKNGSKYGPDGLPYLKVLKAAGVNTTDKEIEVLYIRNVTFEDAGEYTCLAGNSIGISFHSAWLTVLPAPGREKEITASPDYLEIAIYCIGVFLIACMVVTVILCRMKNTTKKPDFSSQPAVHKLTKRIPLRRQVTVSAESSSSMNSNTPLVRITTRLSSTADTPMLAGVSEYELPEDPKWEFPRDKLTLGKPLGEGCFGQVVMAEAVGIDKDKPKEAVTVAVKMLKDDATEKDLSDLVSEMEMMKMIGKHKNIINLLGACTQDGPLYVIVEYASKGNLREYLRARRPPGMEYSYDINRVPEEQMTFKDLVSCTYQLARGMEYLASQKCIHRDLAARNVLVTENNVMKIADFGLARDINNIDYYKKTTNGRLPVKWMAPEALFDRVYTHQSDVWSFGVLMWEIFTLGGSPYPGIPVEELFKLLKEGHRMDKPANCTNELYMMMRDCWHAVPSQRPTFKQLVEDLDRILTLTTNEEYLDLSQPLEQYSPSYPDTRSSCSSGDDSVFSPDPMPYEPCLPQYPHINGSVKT
Serine/threonine-protein kinase Nek6 (Homo sapiens), sequence (Q9HC98 whole entry): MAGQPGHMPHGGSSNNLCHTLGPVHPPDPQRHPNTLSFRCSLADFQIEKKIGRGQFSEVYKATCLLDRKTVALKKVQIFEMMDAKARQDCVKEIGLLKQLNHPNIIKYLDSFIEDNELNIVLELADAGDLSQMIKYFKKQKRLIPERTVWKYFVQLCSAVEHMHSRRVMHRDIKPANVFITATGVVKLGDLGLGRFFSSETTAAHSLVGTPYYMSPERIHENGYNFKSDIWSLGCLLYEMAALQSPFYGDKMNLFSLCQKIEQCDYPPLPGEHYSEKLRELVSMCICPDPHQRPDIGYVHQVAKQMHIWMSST
Calcium/calmodulin-dependent protein kinase type II subunit delta (Homo sapiens), sequence (Q13557 whole entry): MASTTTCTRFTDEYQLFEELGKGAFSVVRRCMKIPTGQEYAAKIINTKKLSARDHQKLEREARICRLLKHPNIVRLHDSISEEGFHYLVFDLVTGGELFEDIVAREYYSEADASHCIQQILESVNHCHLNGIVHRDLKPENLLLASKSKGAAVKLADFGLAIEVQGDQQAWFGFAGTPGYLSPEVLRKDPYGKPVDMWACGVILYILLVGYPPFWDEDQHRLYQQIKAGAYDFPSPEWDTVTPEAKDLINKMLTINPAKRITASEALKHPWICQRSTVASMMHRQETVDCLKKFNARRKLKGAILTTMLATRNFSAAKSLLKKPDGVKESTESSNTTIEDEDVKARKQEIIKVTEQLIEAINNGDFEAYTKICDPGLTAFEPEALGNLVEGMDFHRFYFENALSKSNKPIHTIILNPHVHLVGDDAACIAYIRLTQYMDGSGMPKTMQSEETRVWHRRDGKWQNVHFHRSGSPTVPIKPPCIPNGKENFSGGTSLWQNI
Serine/threonine-protein kinase PAK 4 (Homo sapiens), sequence (O96013 whole entry, looked up): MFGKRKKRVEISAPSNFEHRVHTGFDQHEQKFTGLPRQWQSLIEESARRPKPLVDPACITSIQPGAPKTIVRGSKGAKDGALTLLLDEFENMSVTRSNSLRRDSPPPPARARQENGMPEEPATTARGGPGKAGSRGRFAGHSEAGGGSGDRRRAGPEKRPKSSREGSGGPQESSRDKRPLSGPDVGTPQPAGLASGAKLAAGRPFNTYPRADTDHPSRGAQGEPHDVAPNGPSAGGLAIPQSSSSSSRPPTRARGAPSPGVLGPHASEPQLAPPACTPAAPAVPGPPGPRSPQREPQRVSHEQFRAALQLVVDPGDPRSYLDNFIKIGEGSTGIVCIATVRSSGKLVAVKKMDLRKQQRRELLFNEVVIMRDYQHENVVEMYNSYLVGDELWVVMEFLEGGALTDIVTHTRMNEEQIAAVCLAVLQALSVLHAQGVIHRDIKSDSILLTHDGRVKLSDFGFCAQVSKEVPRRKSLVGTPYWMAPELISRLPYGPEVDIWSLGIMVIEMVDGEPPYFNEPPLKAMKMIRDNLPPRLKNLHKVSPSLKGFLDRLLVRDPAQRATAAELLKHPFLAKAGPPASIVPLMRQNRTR
Death-associated protein kinase 3 (Homo sapiens), sequence (O43293 whole entry, looked up): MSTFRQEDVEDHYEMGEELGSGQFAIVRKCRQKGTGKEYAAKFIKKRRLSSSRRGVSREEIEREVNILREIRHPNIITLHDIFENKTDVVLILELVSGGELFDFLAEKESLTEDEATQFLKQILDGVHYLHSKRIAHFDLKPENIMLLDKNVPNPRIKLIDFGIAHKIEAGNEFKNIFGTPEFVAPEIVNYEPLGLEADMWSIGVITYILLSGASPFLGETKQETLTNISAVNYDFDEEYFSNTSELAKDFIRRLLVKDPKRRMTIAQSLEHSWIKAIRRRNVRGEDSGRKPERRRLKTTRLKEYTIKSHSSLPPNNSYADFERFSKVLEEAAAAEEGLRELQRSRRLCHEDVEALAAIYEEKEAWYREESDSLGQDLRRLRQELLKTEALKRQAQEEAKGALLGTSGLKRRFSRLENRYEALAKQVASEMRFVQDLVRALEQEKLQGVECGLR
Tyrosine-protein kinase Tec (Homo sapiens), sequence (P42680 whole entry, looked up): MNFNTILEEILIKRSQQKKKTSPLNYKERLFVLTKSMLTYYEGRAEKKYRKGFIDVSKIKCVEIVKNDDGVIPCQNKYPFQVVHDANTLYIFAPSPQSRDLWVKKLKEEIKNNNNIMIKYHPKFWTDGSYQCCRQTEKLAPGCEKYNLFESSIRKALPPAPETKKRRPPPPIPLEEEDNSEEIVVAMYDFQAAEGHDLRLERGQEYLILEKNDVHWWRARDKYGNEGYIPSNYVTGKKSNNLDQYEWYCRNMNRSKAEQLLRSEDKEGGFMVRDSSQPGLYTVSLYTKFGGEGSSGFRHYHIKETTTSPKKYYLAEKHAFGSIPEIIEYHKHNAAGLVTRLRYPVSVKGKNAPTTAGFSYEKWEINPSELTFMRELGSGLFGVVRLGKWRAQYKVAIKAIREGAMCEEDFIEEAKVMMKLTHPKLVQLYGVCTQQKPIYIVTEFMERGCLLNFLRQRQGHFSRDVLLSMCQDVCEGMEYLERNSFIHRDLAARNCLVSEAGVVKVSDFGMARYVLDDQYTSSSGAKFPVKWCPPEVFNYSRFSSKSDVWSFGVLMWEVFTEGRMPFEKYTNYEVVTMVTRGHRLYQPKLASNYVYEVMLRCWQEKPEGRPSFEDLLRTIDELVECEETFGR
Tyrosine-protein kinase FRK (Homo sapiens), sequence (P42685 whole entry): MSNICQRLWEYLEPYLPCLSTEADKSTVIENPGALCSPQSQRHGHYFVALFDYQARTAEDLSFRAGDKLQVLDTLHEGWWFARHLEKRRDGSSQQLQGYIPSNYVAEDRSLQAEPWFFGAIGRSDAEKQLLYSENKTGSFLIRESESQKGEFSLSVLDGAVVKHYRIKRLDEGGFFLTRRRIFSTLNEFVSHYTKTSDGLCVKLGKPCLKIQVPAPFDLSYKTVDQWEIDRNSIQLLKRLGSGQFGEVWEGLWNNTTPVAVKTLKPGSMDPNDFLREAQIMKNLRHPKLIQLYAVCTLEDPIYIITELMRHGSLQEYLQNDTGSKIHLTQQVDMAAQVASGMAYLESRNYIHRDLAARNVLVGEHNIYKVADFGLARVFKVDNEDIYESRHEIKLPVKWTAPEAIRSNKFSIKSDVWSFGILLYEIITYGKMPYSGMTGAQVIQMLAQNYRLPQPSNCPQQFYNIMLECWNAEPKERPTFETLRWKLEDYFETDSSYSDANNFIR

Regarding `COc1cc2nc(C)nc(N[C@H](C)c3cccc(-c4cn[nH]c4)c3)c2cc1OC`, the Activity in assay [1] turned out to be 100%.
With `COc1cc2ncnc(N[C@H](C)c3cccc4ccccc34)c2cc1OC`, the inhibition came to 38% in assay [2] and 37% in assay [9]. The Activity in [3] came to 95%; in assay [4] it was 83%; in [5], 96%; in assay [6], 93%; in assay [7], 83%; in assay [8] it was 98%. For the same molecule, the Activity in assay [10] is 100%; in assay [11], 73%; in assay [12] it was 77%; in assay [13], 80%; in assay [14], 79%; in assay [15] it was 88%. The Activity in [16] was determined as 87%; in assay [17], 87%; in assay [18] it was 70%.
